# What was measured:
# HvMsrA (MsrA-StrepII) = biological target: T1, HvMsrA (MsrA-StrepII) (Haloferax volcanii, UniProt D4GQQ9); assay: MSO-peptide reductase assay, HPLC of dabsyl-Met; type: biochemical
# T1 construct: gene msrA1; C-terminal StrepII tag; expressed in E. coli Rosetta (DE3), Strep-Tactin and Superdex 75 purified; 21 kDa
# T1 sequence (D4GQQ9 1-189): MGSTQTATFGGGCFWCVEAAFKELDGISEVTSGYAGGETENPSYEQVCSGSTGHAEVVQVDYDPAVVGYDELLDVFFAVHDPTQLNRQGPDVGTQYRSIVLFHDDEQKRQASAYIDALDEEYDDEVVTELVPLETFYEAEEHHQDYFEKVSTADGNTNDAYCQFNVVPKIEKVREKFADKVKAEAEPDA
# HvMsrB (MsrB-StrepII) = biological target: T2, HvMsrB (MsrB-StrepII) (Haloferax volcanii, UniProt D4GVV0); assay: MSO-peptide reductase assay of cell lysate, HPLC of dabsyl-Met; type: biochemical; conditions: 400 µg cell extract, 200 µM dabsyl-MSO, 20 mM DTT, 25 mM Tris-Cl pH 7.5, 37°C
# T2 construct: StrepII-tagged, expressed from plasmid in Hfx. volcanii deletion strains; cell lysate
# T2 sequence (D4GVV0 entry or part of it): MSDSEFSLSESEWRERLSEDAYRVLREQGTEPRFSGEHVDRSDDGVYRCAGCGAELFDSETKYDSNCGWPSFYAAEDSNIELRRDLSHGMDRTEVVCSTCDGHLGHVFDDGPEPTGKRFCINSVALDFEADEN
Compound,"MSO-peptide reductase assay, HPLC of dabsyl-Met (HvMsrA (MsrA-StrepII); inhibitor, 0 to 20 mM MSO, dabsyl-MSO substrate, DTT, Tris-Cl pH 7.5, NaCl 0.2 to 2 M, 37°C, probably competing substrate)","MSO-peptide reductase assay of cell lysate, HPLC of dabsyl-Met (HvMsrB (MsrB-StrepII))","MSO-peptide reductase assay, HPLC of dabsyl-Met (HvMsrA (MsrA-StrepII); 200 µM dabsyl-MSO, 20 mM DTT, 25 mM Tris-Cl pH 7.5, 37°C, 30 min)"
C[S+]([O-])CC[C@H](N)C(=O)O (stereo partly drawn) [MSO],DMSO and MSO inhibited the MSO-peptide reductase activity of HvMsrA in a dose-dependent manner,,
CN(C)c1ccc(N=Nc2ccc(S(=O)(=O)N[C@@H](CC[S+](C)[O-])C(=O)O)cc2)cc1 (stereo partly drawn) [dabsyl-MSO],,HvMsrB was also found to catalyze MSO-peptide reductase activity,HvMsrA was found to catalyze the reduction of the MSO peptide

# — publication PMC5587910, “Methionine Sulfoxide Reductase A (MsrA) and Its Function in Ubiquitin-Like Protein Modification in Archaea” (mBio, 2017)
